In assay [1] the test system is HeLa. The assay is described as follows: Cytotoxicity against human HeLa cells assessed as decrease in cell viability at 0.6 mM in presence of 5 mM glucose after 14 hrs by WST-8 based CCK-8 assay. Format: functional. On the technique in general: Tetrazolium dyes change colour on reduction, which living cells bring about.
In assay [2] the test system is HeLa. The assay is described as follows: Induction of mitochondrial membrane depolarization in human HeLa cells at 0.5 mM by JC-1 staining based flow cytometry. The format is functional, cell-based.
Assay [3] has as its system HeLa. The assay is described as follows: Induction of DNA damage in human HeLa cells assessed as increase in oxidative DNA lesions by measuring oxidized purines at 0.1 mM preincubated for 1 hr followed by formamidopyrimidine DNA glycosylase addition measured after 30 mins by alkaline comet assay. Format: functional, cell-based.
Assay [4] deals with Escherichia coli DH5[alpha]. As to the kind of experiment: Induction of DNA damage in Escherichia coli DH5alpha supercoiled pUC19 DNA assessed as increase in open circular forms at 0.1 to 1 mM by ethidium bromide staining based agarose gel electrophoresis.
For assay [5], the system named is HeLa. As to the kind of experiment: Geno-toxicity in human HeLa cells assessed as induction of DNA damage after 1 hr by alkaline comet assay. The format is functional, cell-based.
In assay [6] the test system is Escherichia coli DH5[alpha]. As to the kind of experiment: Induction of DNA damage in Escherichia coli DH5alpha supercoiled pUC19 DNA assessed as increase in linear DNA forms at 0.1 to 1 mM by ethidium bromide staining based agarose gel electrophoresis.
The subject of assay [7] is HeLa. As to the kind of experiment: Geno-toxicity in human HeLa cells assessed as induction of DNA damage by measuring double stranded DNA breaks at 0.02 to 0.5 mM after 1 hr by neutral comet assay. Format: functional, cell-based.
Assay [8] deals with HeLa. As to the kind of experiment: Induction of oxidative DNA damage in human HeLa cells at 0.05 to 0.5 mM in presence of PBN spin trap after 1 hr by alkaline comet assay. Format: functional, cell-based.
Assay [9] has as its system HeLa. The assay is described as follows: Upregulation of FHL2 mRNA expression in human HeLa cells at 0.5 mM after 1 hr by qRT-PCR method. Format: functional, cell-based.
For assay [10], the system named is HeLa. As to the kind of experiment: Geno-toxicity in human HeLa cells assessed as induction of DNA damage at 0.1 mM at 37 degC by alkaline comet assay. Format: functional, cell-based.
In assay [11] the test system is HeLa. As to the kind of experiment: Induction of DNA damage in human HeLa cells at 0.1 mM in presence of antioxidant vitamin E after 1 hr by alkaline comet assay. The format is functional, cell-based.
The subject of assay [12] is HeLa. The assay is described as follows: Geno-toxicity in human HeLa cells assessed as induction of DNA damage at pH 12.1 after 1 hr by comet assay. Format: functional, cell-based.
The subject of assay [13] is HeLa. The assay is described as follows: Geno-toxicity in human HeLa cells assessed as induction of DNA damage at 0.6 mM in presence of 5 mM glucose after 1 hr by alkaline comet assay. The format is functional, cell-based.
In assay [14] the test system is HeLa. As to the kind of experiment: Induction of ROS production in human HeLa cells at 0.1 mM after 24 hrs by H2DCFDA probe based fluorescence assay. Format: functional, cell-based.
Assay [15] has as its system HeLa. As to the kind of experiment: Induction of DNA damage in human HeLa cells assessed as increase in oxidative DNA lesions by measuring oxidized pyrimidines at 0.1 mM preincubated for 1 hr followed by endonuclease3 addition measured after 30 mins by alkaline comet assay. The format is functional, cell-based.
The test system of assay [16] is HeLa. The assay is described as follows: Geno-toxicity in human HeLa cells assessed as induction of DNA damage at 0.1 mM by alkaline comet assay. Conditions: TDE = time-dependent effect. The format is functional, cell-based.
In assay [17] the test system is HeLa. The assay is described as follows: Induction of apoptosis in human HeLa cells at 0.5 mM after 4 hrs by Annexin-V-FITC/PI staining based flow cytometry. Format: functional, cell-based.
The test system of assay [18] is HeLa. As to the kind of experiment: Upregulation of NOX5 mRNA expression in human HeLa cells at 0.5 mM after 1 hr by qRT-PCR method. Format: functional, cell-based.
For assay [19], the system named is Escherichia coli DH5[alpha]. As to the kind of experiment: Induction of DNA damage in Escherichia coli DH5alpha supercoiled pUC19 DNA assessed as decrease in covalently closed circular DNA forms at 0.1 to 1 mM by ethidium bromide staining based agarose gel electrophoresis.
Assay [20] has as its system HeLa. The assay is described as follows: Induction of DNA damage in human HeLa cells assessed as increase in oxidative DNA lesions by measuring oxidized purines at 0.1 mM preincubated for 1 hr followed by human 8-oxoguanine DNA N-glycosylase1 addition measured after 30 mins by alkaline comet assay. The format is functional, cell-based.
Assay [21] has as its system HeLa. As to the kind of experiment: Induction of DNA damage in human HeLa cells at 0.1 mM in presence of antioxidant epikatehin after 1 hr by alkaline comet assay. Format: functional, cell-based.
Assay [22] deals with HeLa. The assay is described as follows: Geno-toxicity in human HeLa cells assessed as induction of DNA damage at 0.1 mM at 4 degC by alkaline comet assay. Format: functional, cell-based.
For assay [23], the system named is HeLa. The assay is described as follows: Down regulation of NCOA7 mRNA expression in human HeLa cells at 0.5 mM after 1 hr by qRT-PCR method. Format: functional, cell-based.
Assay [24] relates to HeLa. The assay is described as follows: Geno-toxicity in human HeLa cells assessed as induction of DNA damage by measuring double stranded DNA breaks at 0.19 to 0.76 mM after 1 hr by neutral comet assay. The format is functional, cell-based.
The subject of assay [25] is HeLa. As to the kind of experiment: Geno-toxicity in human HeLa cells assessed as induction of DNA damage at 0.2 mM by alkaline comet assay. Conditions: TDE = time-dependent effect. Format: functional, cell-based.
The subject of assay [26] is HeLa. As to the kind of experiment: Geno-toxicity in human HeLa cells assessed as induction of DNA damage at 0.2 mM at 37 degC by alkaline comet assay. The format is functional, cell-based.
Assay [27] relates to HeLa. As to the kind of experiment: Induction of oxidative DNA damage in human HeLa cells at 0.19 to 0.76 mM in presence of PBN spin trap after 1 hr by alkaline comet assay. Format: functional, cell-based.
The subject of assay [28] is HeLa. The assay is described as follows: Induction of ROS production in human HeLa cells at 0.2 mM after 24 hrs by H2DCFDA probe based fluorescence assay. Format: functional, cell-based.
The test system of assay [29] is HeLa. The assay is described as follows: Geno-toxicity in human HeLa cells assessed as induction of DNA damage at 0.2 mM at 4 degC by alkaline comet assay. Format: functional, cell-based.
For assay [30], the system named is HeLa. As to the kind of experiment: Cytotoxicity against human HeLa cells assessed as decrease in cell viability at 0.5 mM in presence of 5 mM glucose after 14 hrs by WST-8 based CCK-8 assay. Format: functional.
In assay [31] the test system is HeLa. As to the kind of experiment: Geno-toxicity in human HeLa cells assessed as induction of DNA damage at 0.5 mM in presence of 5 mM glucose after 1 hr by alkaline comet assay. The format is functional, cell-based.

Results on 2 molecules are retold here after ChEMBL document CHEMBL3997790, “The oxidative induction of DNA lesions in cancer cells by 5-thio-d-glucose and 6-thio-d-fructopyranose and their genotoxic effects. Part 3” (Bioorg Med Chem Lett, 2017).

Active and inactive are the calls of the source. The rule behind the calls is not given here.

With `OC[C@H]1SC(O)[C@H](O)[C@@H](O)[C@@H]1O` (stereo partly specified), the outcome in the assay on HeLa [1], in the assay with HeLa [3], with HeLa [9], in the assay on HeLa [13], in the assay with HeLa [14] and in the assay with HeLa [15] was Active. Moreover, the result in the assay on HeLa [18], with HeLa [20], with HeLa [22] and in the assay with HeLa [23] was Active. The outcome (in the assay on HeLa [2]; in [4]; in [6]; with HeLa [7]; with HeLa [8]; with HeLa [10]) was inactive. Also, the outcome (in the assay on HeLa [11]; in the assay with HeLa [17]; in assay [19]; in the assay on HeLa [21]) was inactive. The Activity entry with HeLa [5] is “Dose-dependent effect”; in the assay on HeLa [12] it was “Dose-dependent effect”; in the assay on HeLa [16], “Tde”.

`OC[C@@]1(O)SC[C@@H](O)[C@@H](O)[C@@H]1O`: the result (in the assay on HeLa [2]; in [4]; in assay [6]; in the assay on HeLa [24]; with HeLa [26]; with HeLa [11]) was inactive. The outcome (in the assay with HeLa [27]; in the assay with HeLa [17]; in assay [19]; in the assay on HeLa [21]) was inactive. The outcome in the assay on HeLa [3], in the assay with HeLa [9], in the assay with HeLa [28], in the assay with HeLa [29], with HeLa [15] and in the assay on HeLa [18] was Active. The result in the assay on HeLa [30], in the assay with HeLa [20], in the assay on HeLa [23] and in the assay with HeLa [31] was Active. Besides, the values for the Activity entry in the assay with HeLa [5], with HeLa [25] and in the assay on HeLa [12] were “Dose-dependent effect”, “Tde” and “Dose-dependent effect”, respectively.
